In patent publication US10227323B2, “Glucosylceramide synthase inhibitors for the treatment of diseases” (BIOMARIN PHARMACEUTICAL INC., priority 2013, dated 2019):

molecular target: T1, GCS (Canis lupus familiaris, UniProt A0A8I3MXG6); assay: Assay 1: GCS Enzymatic Assay (MDCK cell lysate, C6-NBD-Ceramide, LC/MS); type: biochemical, canine; conditions: Table 1; MDCK cell lysate; read-out: IC50 (nM) generated from Assay 1
T1 sequence (A0A8I3MXG6 1-394): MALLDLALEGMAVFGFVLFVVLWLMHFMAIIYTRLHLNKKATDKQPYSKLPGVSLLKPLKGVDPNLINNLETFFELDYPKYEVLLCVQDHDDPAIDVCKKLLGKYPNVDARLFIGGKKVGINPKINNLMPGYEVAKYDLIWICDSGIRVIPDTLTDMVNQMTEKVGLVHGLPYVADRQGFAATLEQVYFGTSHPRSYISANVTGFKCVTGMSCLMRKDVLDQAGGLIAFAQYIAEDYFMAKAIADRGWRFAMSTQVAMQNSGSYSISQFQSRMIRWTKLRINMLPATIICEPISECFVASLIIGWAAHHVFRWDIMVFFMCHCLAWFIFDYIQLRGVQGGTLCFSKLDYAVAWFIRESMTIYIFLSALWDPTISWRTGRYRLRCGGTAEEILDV
Summary of the method: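 LC/MS/MS measurement of glucosylceramide and NBD-ceramide after a 1 h, 37 °C reaction with 100 μM UDP-glucose and 10 μM C6-NBD-ceramide gave IC50s or percent inhibition.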

Row | IC50 [nM] | Compound
1 | < 50 | O=C(N[C@H](CN1CCCC1)[C@H](O)c1ccc2c(c1)OCCO2)C(F)(F)C1Cc2ccc(-c3ccccn3)cc2C1 (stereo partly drawn) [Compound 50, N-((1R,2R)-1-(2,3-dihydrobenzo[b][1,4]dioxin-6-yl)-1-hydroxy-3-(pyrrolidin-1-yl)propan-2-yl)-2,2-difluoro-2-(5-(pyridin-2-yl)-2,3-dihydro-1H-inden-2-yl)acetamide]
2 | < 50 | O=C(N[C@H](CN1CC2CCC1C2)[C@H](O)c1ccc2c(c1)OCCO2)C(F)(F)c1cc2cc(Cl)ccc2o1 (stereo partly drawn) [Compound 51, N-((1R,2R)-3-(2-azabicyclo[2.2.1]heptan-2-yl)-1-(2,3-dihydrobenzo[b][1,4]dioxin-6-yl)-1-hydroxypropan-2-yl)-2-(5-chlorobenzofuran-2-yl)-2,2-difluoroacetamide]
3 | < 50 | O=C(N[C@H](CN1CCCC1)[C@H](O)c1ccc(OC2CC2)c(Cl)c1)C(F)(F)CCc1ccc2ccccc2c1 [Compound 52, N-((1R,2R)-1-(3-chloro-4-cyclopropoxyphenyl)-1-hydroxy-3-(pyrrolidin-1-yl)propan-2-yl)-2,2-difluoro-4-(naphthalen-2-yl)butanamide]
4 | < 50 | COc1ccc([C@@H](O)[C@@H](CN2CCCC2)NC(=O)C(F)(F)c2cc3cc(Cl)ccc3o2)cn1 [Compound 56, 2-(5-chlorobenzofuran-2-yl)-2,2-difluoro-N-((1R,2R)-1-hydroxy-1-(6-methoxypyridin-3-yl)-3-(pyrrolidin-1-yl)propan-2-yl)acetamide]
5 | < 50 | [2H][C@@](O)(c1ccc2c(c1)OCCO2)[C@@H](CN1CCCC1)NC(=O)C(F)(F)c1cc2cc(Cl)ccc2o1 [Compound 57, 2-(5-chlorobenzofuran-2-yl)-N-((1R,2R)-1-(2,3-dihydrobenzo[b][1,4]dioxin-6-yl)-1-deutero-1-hydroxy-3-(pyrrolidin-1-yl)propan-2-yl)-2,2-difluoroacetamide]
6 | < 50 | O=C(N[C@H](CN1CCCC1)C(O)c1ccc2c(c1)OCCO2)C(F)(F)c1cc2cc(Cl)ccc2o1 (stereo partly drawn) [Compound 57B, N-[2-(2H,3H-benzo[e]1,4-dioxan-6-yl)(1R)-2-hydroxy-1-(pyrrolidinylmethyl)ethyl]-2-(5-chlorobenzo[d]furan-2-yl)-2,2-difluoroacetamide]
7 | 50 to 5000 | COc1ccc([C@@H](O)[C@@H](CN2CCCC2)NC(=O)C(F)(F)c2cc3cc(Cl)ccc3o2)cc1C(F)F [Compound 59, 2-(5-chlorobenzofuran-2-yl)-N-((1R,2R)-1-(3-(difluoromethyl)-4-methoxyphenyl)-1-hydroxy-3-(pyrrolidin-1-yl)propan-2-yl)-2,2-difluoroacetamide]
8 | < 50 | [2H]C([2H])(C(=O)N[C@H](CN1CCCC1)[C@H](O)c1ccc2c(c1)OCCO2)c1cc2cc(Cl)ccc2o1 [Compound 60, 2-(5-chlorobenzofuran-2-yl)-N-((1R,2R)-1-(2,3-dihydrobenzo[b][1,4]dioxin-6-yl)-1-hydroxy-3-(pyrrolidin-1-yl)propan-2-yl)-2,2-dideutero-acetamide]
9 | < 50 | O=C(N[C@H](CN1CCCC1)[C@H](O)c1ccc2c(c1)OCCO2)C(F)(F)C1Cc2ccc(Cl)cc2C1 (stereo partly drawn) [Compound 63, 2-(5-chloro-2,3-dihydro-1H-inden-2-yl)-N-((1R,2R)-1-(2,3-dihydrobenzo[b][1,4]dioxin-6-yl)-1-hydroxy-3-(pyrrolidin-1-yl)propan-2-yl)-2,2-difluoroacetamide]
10 | < 50 | O=C(N[C@H](CN1CCCC1)[C@H](O)c1cc(F)c2c(c1)OCCO2)C(F)(F)c1cc2cc(Cl)ccc2o1 [Compound 64, 2-(5-chlorobenzofuran-2-yl)-2,2-difluoro-N-((1R,2R)-1-(8-fluoro-2,3-dihydrobenzo[b][1,4]dioxin-6-yl)-1-hydroxy-3-(pyrrolidin-1-yl)propan-2-yl)acetamide]
11 | < 50 | O=C(N[C@H](CN1CCCC1)[C@H](O)c1cc(Cl)c2c(c1)OCCO2)C(F)(F)c1cc2cc(Cl)ccc2o1 [Compound 65, N-((1R,2R)-1-(8-chloro-2,3-dihydrobenzo[b][1,4]dioxin-6-yl)-1-hydroxy-3-(pyrrolidin-1-yl)propan-2-yl)-2-(5-chlorobenzofuran-2-yl)-2,2-difluoroacetamide]

Row | Compound | IC50 [nM]
12 | O=C(N[C@H](CN1C2CCC1CC2)[C@H](O)c1ccc2c(c1)OCCO2)C(F)(F)c1cc2cc(Cl)ccc2o1 [Compound 53, N-((1R,2R)-3-(7-azabicyclo[2.2.1]heptan-7-yl)-1-(2,3-dihydrobenzo[b][1,4]dioxin-6-yl)-1-hydroxypropan-2-yl)-2-(5-chlorobenzofuran-2-yl)-2,2-difluoroacetamide] | < 50

same assay, conditions: Table 1; values marked *; MDCK cell lysate

Row | Compound | % inhibition generated from Assay 1
13 | Cn1ncc2ccc([C@@H](O)[C@@H](CN3CCCC3)NC(=O)C(F)(F)c3cc4cc(Cl)ccc4o3)cc21 [Compound 54, 2-(5-chlorobenzofuran-2-yl)-2,2-difluoro-N-((1R,2R)-1-hydroxy-1-(1-methyl-1H-indazol-6-yl)-3-(pyrrolidin-1-yl)propan-2-yl)acetamide] | B* (the compound had a % inhibition of greater than or equal to about 3% but less than about 50%)
14 | Cn1ncc2ccc([C@H](O)[C@@H](CN3CCCC3)NC(=O)C(F)(F)c3cc4cc(Cl)ccc4o3)cc21 [Compound 54G, 2-(5-chlorobenzofuran-2-yl)-2,2-difluoro-N-((1S,2R)-1-hydroxy-1-(1-methyl-1H-indazol-6-yl)-3-(pyrrolidin-1-yl)propan-2-yl)acetamide] | B* (the compound had a % inhibition of greater than or equal to about 3% but less than about 50%)
15 | [2H][C@](O)(c1ccc2c(c1)OCCO2)[C@@H](CN1CCCC1)NC(=O)C(F)(F)c1cc2cc(Cl)ccc2o1 [Compound 57C, 2-(5-chlorobenzofuran-2-yl)-N-((1S,2R)-1-(2,3-dihydrobenzo[b][1,4]dioxin-6-yl)-1-deutero-1-hydroxy-3-(pyrrolidin-1-yl)propan-2-yl)-2,2-difluoroacetamide] | B* (the compound had a % inhibition of greater than or equal to about 3% but less than about 50%)
16 | COc1ccc([C@H](O)[C@@H](CN2CCCC2)NC(=O)C(F)(F)c2cc3cc(Cl)ccc3o2)cc1C(F)F [Compound 59I, 2-(5-chlorobenzofuran-2-yl)-N-((1S,2R)-1-(3-(difluoromethyl)-4-methoxyphenyl)-1-hydroxy-3-(pyrrolidin-1-yl)propan-2-yl)-2,2-difluoroacetamide] | B* (the compound had a % inhibition of greater than or equal to about 3% but less than about 50%)
17 | O=C(N[C@H](CN1CCCC1)[C@H](O)c1cc2c(cc1Br)OCCO2)C(F)(F)c1cc2cc(Cl)ccc2o1 [Compound 61, N-((1R,2R)-1-(7-bromo-2,3-dihydrobenzo[b][1,4]dioxin-6-yl)-1-hydroxy-3-(pyrrolidin-1-yl)propan-2-yl)-2-(5-chlorobenzofuran-2-yl)-2,2-difluoroacetamide] | B* (the compound had a % inhibition of greater than or equal to about 3% but less than about 50%)
18 | CC1(C)CN(C[C@@H](NC(=O)C(F)(F)c2cc3cc(Cl)ccc3o2)[C@H](O)c2ccc3c(c2)OCCO3)C1 [Compound 62, 2-(5-chlorobenzofuran-2-yl)-N-((1R,2R)-1-(2,3-dihydrobenzo[b][1,4]dioxin-6-yl)-3-(3,3-dimethylazetidin-1-yl)-1-hydroxypropan-2-yl)-2,2-difluoroacetamide] | B* (the compound had a % inhibition of greater than or equal to about 3% but less than about 50%)
